According to ChEMBL document CHEMBL5634090, “Design of phenothiazine-based cationic amphiphilic derivatives incorporating arginine residues: Potential membrane-active broad-spectrum antimicrobials combating pathogenic bacteria in vitro and in vivo” (Eur J Med Chem, 2023):
Converted amounts (≈) assume the structure as drawn.

Legend:
[1] = system: Escherichia coli; assay: Antibacterial activity against Escherichia coli ATCC 25922 by microbroth dilution assay; assay type: functional
[2] = system: Staphylococcus aureus; assay: Antibacterial activity against methicillin resistant Staphylococcus aureus N315 by microbroth dilution assay; assay type: functional
[3] = system: Staphylococcus aureus; assay: Antibacterial activity against methicillin resistant Staphylococcus aureus NCTC 10442 by microbroth dilution assay; assay type: functional
[4] = Hemolytic activity in rabbit erythrocytes; assay type: toxicity, cell-based, Oryctolagus cuniculus, Erythrocyte
[5] = system: Staphylococcus aureus; assay: Antibacterial activity against Staphylococcus aureus ATCC 29213 by microbroth dilution assay; assay type: functional

SMILES	MIC [1] [µg/mL]	MIC [2] [µg/mL]	MIC [3] [µg/mL]	HC50 [4] [µg/mL]	MIC [5] [µg/mL]
CCCCCCCOc1ccc2c(c1)N(CCCCN)c1ccccc1S2	> 50	1.56 (≈ 4.06 µM)	3.12 (≈ 8.13 µM)	> 200	3.12 (≈ 8.13 µM)
CCCCCCCCCOc1ccc2c(c1)N(CCCCN)c1ccccc1S2	> 50	3.12 (≈ 7.57 µM)	3.12 (≈ 7.57 µM)	> 200	3.12 (≈ 7.57 µM)
CCCCCCCOc1ccc2c(c1)N(CCCCNC(=N)N)c1ccccc1S2	> 50	0.78 (≈ 1.83 µM)	0.78 (≈ 1.83 µM)	> 200	3.12 (≈ 7.32 µM)
CCCCCCCCCOc1ccc2c(c1)N(CCCCNC(=N)N)c1ccccc1S2	> 50	1.56 (≈ 3.43 µM)	1.56 (≈ 3.43 µM)	> 200	3.12 (≈ 6.87 µM)
CCCCCN1c2ccccc2Sc2ccc(OCC(=O)OCC)cc21	> 50	> 50	> 50	> 200	> 50
CCCCCCCOc1ccc2c(c1)Nc1ccccc1S2	> 50	> 50	> 50	> 200	> 50
CCCCCCCN1c2ccccc2Sc2ccc(OCC(=O)OCC)cc21	> 50	> 50	> 50	> 200	> 50
CCCCCOc1ccc2c(c1)N(CCCCCCCCN)c1ccccc1S2	> 50	3.12 (≈ 7.57 µM)	3.12 (≈ 7.57 µM)	> 200	3.12 (≈ 7.57 µM)
CCCCCOc1ccc2c(c1)N(CCCCCCCCN(CC)CC)c1ccccc1S2	> 50	3.12 (≈ 6.67 µM)	3.12 (≈ 6.67 µM)	> 200	3.12 (≈ 6.67 µM)
CCOC(=O)COc1ccc2c(c1)Nc1ccccc1S2	> 50	> 50	> 50	> 200	> 50
CCCCCOc1ccc2c(c1)N(CCCN)c1ccccc1S2	25 (≈ 73 µM)	3.12 (≈ 9.12 µM)	3.12 (≈ 9.12 µM)	> 200	3.12 (≈ 9.12 µM)
CC(C)=CCOc1ccc2c(c1)Nc1ccccc1S2	> 50	> 50	> 50	> 200	> 50
CC(C)=CCOc1ccc2c(c1)N(CCCCN)c1ccccc1S2	> 50	6.25 (≈ 17.6 µM)	6.25 (≈ 17.6 µM)	> 200	6.25 (≈ 17.6 µM)
CCCCCOc1ccc2c(c1)N(CCCCCCN)c1ccccc1S2	> 50	1.56 (≈ 4.06 µM)	1.56 (≈ 4.06 µM)	> 200	3.12 (≈ 8.13 µM)
COc1ccc2c(c1)Nc1ccccc1S2	> 50	> 50	> 50	> 200	> 50
CCCCCOc1ccc2c(c1)N(CCCNC(=N)N)c1ccccc1S2	> 50	1.56 (≈ 4.06 µM)	0.78 (≈ 2.03 µM)	> 200	1.56 (≈ 4.06 µM)
CCCCCN1c2ccccc2Sc2ccc(OCC(=O)N[C@@H](CCCNC(=N)N)C(=O)N[C@@H](CCCNC(=N)N)C(=O)OC)cc21	> 50	3.12 (≈ 4.67 µM)	6.25 (≈ 9.33 µM)	> 200	6.25 (≈ 9.33 µM)
CCCCCOc1ccc2c(c1)N(CCCCCCNC(=N)N)c1ccccc1S2	> 50	1.56 (≈ 3.66 µM)	1.56 (≈ 3.66 µM)	> 200	1.56 (≈ 3.66 µM)
CCCCCCCCCOc1ccc2c(c1)Nc1ccccc1S2	> 50	> 50	> 50	> 200	> 50
CCCCCOc1ccc2c(c1)N(CCCCCCCCNC(=N)N)c1ccccc1S2	> 50	1.56 (≈ 3.43 µM)	1.56 (≈ 3.43 µM)	> 200	1.56 (≈ 3.43 µM)
CCCCCOc1ccc2c(c1)N(CCCCN(CC)CC)c1ccccc1S2	> 50	3.12 (≈ 7.57 µM)	3.12 (≈ 7.57 µM)	> 200	6.25 (≈ 15.1 µM)
CC1(C)S[C@@H]2[C@H](NC(=O)[C@H](N)c3ccc(O)cc3)C(=O)N2[C@H]1C(=O)O [AMOXICILLIN]	6.25 (≈ 17.1 µM)	–	–	–	–
